Where a name gives a salt, the structure may show the parent alone.
What was measured:
[1] = target: T1, human serotonin transporter (Homo sapiens, UniProt P31645); assay: Inhibitory action on human serotonin transporter ([3H]-5-hydroxytryptamine uptake in CHO cells); assay type: cell-based; conditions: CHO, relative to inhibitory activity of 10 μM Paroxetine as 100%, read-out: inhibitory rate (%); for inhibition at 1 µM: compound 1 μM
T1 construct: expressed in transfected cells
Procedure, shortened: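 CHO-K1 cells stably expressing human SERT, plated overnight, took up [3H]-5-HT (diluted to 200 nM before a 1:10 addition) for 20 min in HEPES-buffered saline with glucose and 0.5% BSA; radioactivity counted by scintillation. Compounds at 10 μM or 1 μM, activity expressed relative to 10 μM paroxetine set as 100%.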

[2] = target: T2, human dopamine transporter (Homo sapiens, UniProt Q01959); assay: Inhibitory action on human dopamine transporter ([3H]-dopamine uptake in CHO cells); assay type: cell-based; conditions: CHO, relative to inhibitory activity of 100 μM Nomifensine as 100%, read-out: inhibitory rate (%); for inhibition at 1 µM: compound 1 μM
T2 construct: expressed in transfected cells
Procedure, shortened: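 CHO-K1 cells stably expressing human dopamine transporter, exposed to compound at 10 μM or 1 μM in HEPES-buffered saline with 0.5% BSA. [3H]-dopamine uptake measured over 60 min by scintillation counting. Activity expressed relative to 100 μM nomifensine as 100%.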

T2 sequence (Q01959 whole entry): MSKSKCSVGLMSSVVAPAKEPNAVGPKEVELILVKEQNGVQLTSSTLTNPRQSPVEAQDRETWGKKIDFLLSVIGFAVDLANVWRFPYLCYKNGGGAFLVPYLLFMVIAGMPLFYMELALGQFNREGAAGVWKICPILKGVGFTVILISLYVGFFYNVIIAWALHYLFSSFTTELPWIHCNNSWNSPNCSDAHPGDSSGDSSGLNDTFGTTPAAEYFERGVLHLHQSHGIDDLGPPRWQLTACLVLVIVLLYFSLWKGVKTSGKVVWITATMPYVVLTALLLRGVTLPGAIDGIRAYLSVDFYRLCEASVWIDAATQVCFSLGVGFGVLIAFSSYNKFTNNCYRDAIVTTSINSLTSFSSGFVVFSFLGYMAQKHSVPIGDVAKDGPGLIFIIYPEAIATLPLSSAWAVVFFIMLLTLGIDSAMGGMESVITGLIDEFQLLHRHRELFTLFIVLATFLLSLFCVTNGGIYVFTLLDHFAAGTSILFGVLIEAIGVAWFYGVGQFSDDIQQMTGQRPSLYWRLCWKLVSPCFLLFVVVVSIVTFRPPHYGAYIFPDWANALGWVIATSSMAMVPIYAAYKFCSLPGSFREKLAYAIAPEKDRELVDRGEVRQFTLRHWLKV
T1 sequence (P31645 whole entry): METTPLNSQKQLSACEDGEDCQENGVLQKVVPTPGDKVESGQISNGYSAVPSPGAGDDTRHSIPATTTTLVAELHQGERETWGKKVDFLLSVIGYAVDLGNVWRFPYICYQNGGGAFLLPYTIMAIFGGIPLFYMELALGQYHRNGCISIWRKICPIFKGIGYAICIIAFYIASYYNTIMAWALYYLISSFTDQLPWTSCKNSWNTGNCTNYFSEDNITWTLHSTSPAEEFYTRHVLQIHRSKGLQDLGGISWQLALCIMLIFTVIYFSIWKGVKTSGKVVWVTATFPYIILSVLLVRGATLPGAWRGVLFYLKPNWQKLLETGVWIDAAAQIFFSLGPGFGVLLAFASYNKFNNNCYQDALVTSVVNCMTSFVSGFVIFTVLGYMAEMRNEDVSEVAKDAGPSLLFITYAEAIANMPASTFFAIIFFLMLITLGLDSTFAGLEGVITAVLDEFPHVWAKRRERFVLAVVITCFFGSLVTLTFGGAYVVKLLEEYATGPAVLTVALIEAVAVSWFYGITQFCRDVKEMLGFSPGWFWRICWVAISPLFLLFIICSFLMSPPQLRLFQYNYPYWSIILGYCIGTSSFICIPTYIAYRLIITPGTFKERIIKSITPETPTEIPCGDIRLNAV

SMILES	inhibition at 1 µM [1]	inhibition at 10 µM ([1]; compound 10 μM, CHO cells expressing human serotonin transporter)	inhibition at 1 µM [2]	inhibition at 10 µM ([2]; compound 10 μM)
CC(=O)NC[C@H]1CNCCO[C@@H]1c1ccc(Cl)c(Cl)c1 (racemic) [Example 6, N-{[(6RS,7SR)-7-(3,4-dichlorophenyl)-1,4-oxazepan-6-yl]methyl}acetamide monohydrochloride]	84%	98%	33%	84%
O=c1[nH]c(-c2cccn(C[C@@H]3CNCCO[C@H]3c3ccc(Cl)c(Cl)c3)c2=O)no1 [Example 31, 1-{[(6S,7R)-7-(3,4-dichlorophenyl)-1,4-oxazepan-6-yl]methyl}-3-(5-oxo-4,5-dihydro-1,2,4-oxadiazol-3-yl)pyridin-2(1H)-one monohydrochloride]	95%	–	33%	–
CC(=O)NC[C@@H]1CNCCO[C@H]1c1ccc(Cl)c(Cl)c1 [Example 32, N-{[(6S,7R)-7-(3,4-dichlorophenyl)-1,4-oxazepan-6-yl]methyl}acetamide 0.5 fumarate]	84%	–	34%	–
COCC(=O)NC[C@@H]1CNCCO[C@H]1c1ccc(Cl)c(Cl)c1 [Example 33, N-{[(6S,7R)-7-(3,4-dichlorophenyl)-1,4-oxazepan-6-yl]methyl}-2-methoxyacetamide monohydrochloride]	92%	–	35%	–
CC(=O)N[C@@H]1CNCCO[C@H]1c1ccc(Cl)c(Cl)c1 [Example 36, N-[(6R,7S)-7-(3,4-dichlorophenyl)-1,4-oxazepan-6-yl]acetamide monofumarate]	69%	–	53%	–
NS(=O)(=O)N[C@@H]1CNCCO[C@H]1c1ccc(Cl)c(Cl)c1 [Example 37, N-[(6R,7S)-7-(3,4-dichlorophenyl)-1,4-oxazepan-6-yl]sulfamide monohydrochloride]	71%	–	51%	–
COCC(=O)NC[C@@H]1CNCCO[C@H]1c1ccc(Cl)c(F)c1 [Example 38, N-{[(6S,7R)-7-(4-chloro-3-fluorophenyl)-1,4-oxazepan-6-yl]methyl}-2-methoxyacetamide monohydrochloride]	69%	–	11%	–
[2H]C([2H])([2H])OCC(=O)NC[C@@H]1CNCCO[C@H]1c1ccc(Cl)c(F)c1 [Example 39, N-{[(6S,7R)-7-(4-chloro-3-fluorophenyl)-1,4-oxazepan-6-yl]methyl}-2-[(^2H3)methyloxy]acetamide monohydrochloride]	58%	–	17%	–
CCOCC(=O)NC[C@@H]1CNCCO[C@H]1c1ccc(Cl)c(F)c1 [Example 40, N-{[(6S,7R)-7-(4-chloro-3-fluorophenyl)-1,4-oxazepan-6-yl]methyl}-2-ethoxyacetamide monohydrochloride]	80%	–	9%	–
CC(C)OCC(=O)NC[C@@H]1CNCCO[C@H]1c1ccc(Cl)c(F)c1 [Example 41, N-{[(6S,7R)-7-(4-chloro-3-fluorophenyl)-1,4-oxazepan-6-yl]methyl}-2-(1-methylethoxy)acetamide monohydrochloride]	70%	–	11%	–
O=c1[nH]c(-c2cccn(C[C@@H]3CNCCO[C@H]3c3ccc(Cl)c(F)c3)c2=O)no1 [Example 43, 1-{[(6S,7R)-7-(4-chloro-3-fluorophenyl)-1,4-oxazepan-6-yl]methyl}-3-(5-oxo-4,5-dihydro-1,2,4-oxadiazol-3-yl)pyridin-2(1H)-one monohydrochloride]	72%	–	15%	–
O=C(O)c1cccn(C[C@@H]2CNCCO[C@H]2c2ccc(Cl)c(F)c2)c1=O [Example 44, 1-{[(6S,7R)-7-(4-chloro-3-fluorophenyl)-1,4-oxazepan-6-yl]methyl}-2-oxo-1,2-dihydropyridine-3-carboxylic acid monohydrochloride]	40%	–	8%	–
OC[C@H](O)[C@@H]1OCCNC[C@H]1c1ccc(Cl)c(Cl)c1 [Example 45, (1S)-1-[(6R,7R)-6-(3,4-dichlorophenyl)-1,4-oxazepan-7-yl]ethane-1,2-diol monohydrochloride]	36%	–	52%	–
O=c1[nH]c(-c2cccnc2O[C@@H]2CNCCO[C@H]2c2ccc(Cl)c(F)c2)no1 [Example 556, 3-(2-{[(6R,7S)-7-(4-chloro-3-fluorophenyl)-1,4-oxazepan-6-yl]oxy}pyridin-3-yl)-1,2,4-oxadiazol-5(4H)-one monohydrochloride]	77%	–	71%	–
O=c1[nH]c(-c2ccccc2O[C@@H]2CNCCO[C@H]2c2ccc(Cl)c(F)c2)no1 [Example 577, 3-(2-{[(6R, 7S)-7-(4-chloro-3-fluoro-phenyl)-1,4-oxazepan-6-yl]oxy}phenyl)-1,2,4-oxadiazol-5(4H)-one]	53%	–	53%	–
O=c1[nH]c(-c2ncccc2O[C@@H]2CNCCO[C@H]2c2ccc(Cl)c(F)c2)no1 [Example 584, 3-(3-{[(6R, 7S)-7-(4-chloro-3-fluorophenyl)-1,4-oxazepan-6-yl]oxy}pyridin-2-yl)-1,2,4-oxadiazol-5(4H)-one]	41%	–	57%	–

Source: patent publication US20130267494A1, “1,4-OXAZEPANE DERIVATIVES” (priority 2010, published 2013)
